Values after ≈ are worked out from the molar mass of the structure shown.
Test system: Mycobacterium tuberculosis
Assay: Antimycobacterial activity against Mycobacterium tuberculosis H37Rv ATCC 27294 after 7 days by microplate alamar blue assay
Type: functional
Conditions: H37Rv ATCC 27294, 168 h

`NNC(=O)c1ccncc1` [ISONIAZID] was tested. Which MIC90 did it give?
The MIC90 was 0.035 µg/mL (≈ 0.255 µM).

With `CO[C@H]1/C=C/O[C@@]2(C)Oc3c(C)c(O)c4c(O)c(c(/C=N/N5CCN(C)CC5)c(O)c4c3C2=O)NC(=O)/C(C)=C\C=C\[C@H](C)[C@H](O)[C@@H](C)[C@@H](O)[C@@H](C)[C@H](OC(C)=O)[C@@H]1C` [RIFAMPIN] as the compound, how does the MIC90 read?
Its MIC90 is 0.059 µg/mL (≈ 0.0717 µM).

For `O=C(c1ccc([N+](=O)[O-])o1)N1CCC(=NOCc2ccc(F)cc2)CC1`, which MIC90 is on record?
The MIC90 was 5.88 µg/mL (≈ 16.3 µM).

`CCON=C1CCN(C(=O)c2ccc([N+](=O)[O-])o2)CC1` was tested. Which MIC90 did it give?
Its MIC90 is 14.1 µg/mL (≈ 50.3 µM).

How did the MIC90 turn out when `CCO/N=C1\CCN(C(=O)c2ccc([N+](=O)[O-])o2)C1` was run?
Its MIC90 is over 32 µg/mL.

With `CO/N=C1\CCN(C(=O)c2ccc([N+](=O)[O-])o2)C1` as the compound, how does the MIC90 read?
Its MIC90 is 1.83 µg/mL (≈ 7.22 µM).

How did the MIC90 turn out when `O=C(c1ccc([N+](=O)[O-])o1)N1CCC(=NOCc2ccccc2)CC1` was run?
The MIC90 was 0.158 µg/mL (≈ 0.46 µM).

`O=C(c1ccc([N+](=O)[O-])o1)N1CCC(=NOCc2ccc(OC(F)(F)F)cc2)CC1` was tested. Which MIC90 did it give?
Its MIC90 is over 32 µg/mL.

With `O=C(c1ccc([N+](=O)[O-])o1)N1CCc2ccccc21` as the compound, how does the MIC90 read?
Its MIC90 is 0.482 µg/mL (≈ 1.87 µM).

Which MIC90 does the source give for `O=C(c1ccc([N+](=O)[O-])o1)N1CCC(=NOCc2ccc(C(F)(F)F)cc2)CC1` here?
The MIC90 was over 32 µg/mL.

With `O=C(c1ccc([N+](=O)[O-])o1)N1CC/C(=N\OCc2ccccc2)C1` as the compound, how does the MIC90 read?
The MIC90 was 0.291 µg/mL (≈ 0.884 µM).

With `O=C(c1ccc([N+](=O)[O-])o1)N1CCC(=NOCc2ccc([N+](=O)[O-])cc2)CC1` as the compound, how does the MIC90 read?
Its MIC90 is over 32 µg/mL.

For `CON=C1CCN(C(=O)c2ccc([N+](=O)[O-])o2)CC1`, which MIC90 is on record?
The MIC90 was 1.93 µg/mL (≈ 7.23 µM).
